In patent US8501679B2, “Cyclic, cystein-free protein” (priority 2007, dated 2013):
Entries after “also recorded” stand apart in the source; their conditions may differ. Where a SMILES comes first, the peptide text is derived from it. Bridges are numbered along the chain shown (N, C = ends).

How the values were obtained:
[1] = tested on: pulmonary oedema / acute lung injury in Wistar rats; assay: Experimental animal study pulmonary oedema: lungs rinsed with acidified saline, arterial oxygen content; format: in vivo, rat; conditions: for improvement in the lung function (increased oxygen content in arterial blood): laboratory animals, injected into the lungs as a fog or aqueous solution, within 3 to 5 hours; for oxygen content of the arterial blood, % relative to the value before rinsing the lungs / oxygen content in the blood after administering protein: rat; for oxygen content of the arterial blood, % relative to the value before rinsing the lungs: 125 μg protein intratracheal, 180 minutes after rinsing the lungs, 20% at 60 minutes and without protein; for oxygen content in the blood after administering protein: intratracheal as a fog one hour after lung rinsing, FIG. 3A/3B
Experimental: For the simulation of an acute lung injury and for the formation of a pulmonary oedema, the lungs of laboratory animals, e.g., mice or rats, can be rinsed several times with an acidified saline solution in a manner common in laboratories (for example, according to Isik F. et al., Eur J Cardiothorac Surg (2005); 28: 301-305). The result is a decrease in lung function.
Male Wistar rats (weighing from 250 g to 350 g) are anesthetized with Rompun® (0.02 ml/100 g) and Ketavet® (0.1 ml/100 g). The respiration is done with a cycle of 72 blows/minute, with an inhalation time of 0.2 seconds and an exhalation time of 0.5 seconds. The body temperature ranges, on average, from 37° C. to 39° C. Under normal conditions, the PaO2 (arterial oxygen partial pressure) ranges from 500 to 550 mm Hg.
For the simulation of an acute lung injury and for the formation of a pulmonary oedema, the lungs are rinsed 7 to 9 times with an acidified saline solution (pH 5).
After one hour, the proteins comprising amino acid sequence SEQ ID NO:1 or SEQ ID NO:2, dissolved in sterile saline solution, are administered intratracheally as a fog (maximum volume administered: 0.5 ml).
At intervals of 60 minutes each, arterial blood (0.1 ml) is withdrawn from the animals, and the oxygen content is determined in % relative to the normal value.
The verification of the stimulating effect of a protein according to the present invention, e.g., of a protein comprising amino acid sequence SEQ ID NO:1, SEQ ID NO:2 or SEQ ID NO:3, on the lung function is made via experimental animal studies in which a pulmonary oedema is induced. The experimental procedure is described in Example 5.
For the intratracheal inhalation, 125 μg protein are, in each case, dissolved in 150 mM saline solution pH 7.3. The oxygen content of the arterial blood is measured immediately before rinsing the lungs, 60 minutes after rinsing the lungs and 180 minutes after rinsing the lungs. The oxygen content immediately before rinsing the lungs is determined to be 100%. 60 minutes after the respective final lung rinsing, the oxygen content in the blood amounts to, on average, only 20%. Within 3 hours, the percentage oxygen content rises to values of […]

[2] = tested on: human immune cells in fresh blood (IL-6 release); assay: Determination of inflammatory parameters: release of Interleukin-6 from human fresh blood (ELISA); format: cell-based; conditions: for Concentration of Interleukin-6 (average of three measurements): human fresh blood, 24 hours at 37° C.; for release of the inflammation marker IL-6: human immune cells from blood incubated with the substance
Experimental: For the examination, human immune cells from the blood are mixed with protein according to the present invention at a small concentration and are incubated in a manner common in laboratories. Subsequently, marker proteins for inflammations are determined in cell-free culture media by conventional methods.
Fresh human blood has a very sensitive reaction to pro-inflammatory molecules, among other things, with a release of the inflammation marker Interleukin-6 (IL-6). For determining the pro-inflammatory reaction, samples of human fresh blood at concentrations of the protein comprising amino acid sequence SEQ ID NO:2 were incubated at the following concentrations from 1 ng/ml to 10 μg/ml. After an incubation of 24 hours at 37° C., the inflammation marker Interleukin-6 was quantitatively determined in the solution via ELISA. LPS served as a positive control (concentrations of 3 ng/ml and 100 ng/ml).
In doing so, the measured data, which are indicated in TABLE 1 and which show the influence of the peptide protein comprising amino acid sequence SEQ ID NO:2 in comparison to LPS on the release of the inflammation marker Interleukin-6 from blood cells, were obtained.

[3] = tested on: sodium ion channels of H441 cells; assay: Activation of ion channels of human epithelial cells, patch-clamp (whole cell / cell-attached); format: cell-based; conditions: FIG. 2A/2B
Excerpt: Furthermore, a method common in laboratories is to detect the activation of ion channels by means of patch-clamp experiments, and this is described, for example, in Clunes M. T. et al, J Physiol Volume 557, No. 3, 809-819 (Jun. 15, 2004). For patch-clamp examinations of ion channels, a glass cannula is stretched thin and filled with a neutral buffer solution. The glass cannula (patch-clamp pipette) is carefully pressed onto an intact epithelial cell. A piece of membrane is located below the pipette. An electrical resistance is thereby produced between the interior of the pipette and the external solution. An electrode attached to a sensitive amplifier dips into the pipette solution.
The electrophysiological experiments were performed on human H441 cells. H441 cells are human lung epithelial cells which are involved in the diffusion of water and electrolytes in the lungs.
The H441 cells were obtained from the American Tissue Culture Collection and cultivated in conventional cell culture vessels in RPMI 1640 medium (Invitrogen). […]
This protocol was carried out by adding proteins comprising amino acid sequence SEQ ID NO:1 or SEQ ID NO:2 as well as the sodium channel inhibitor amiloride. The current dissipations thus obtained were stored and analyzed by means of the program PCLAMP 6.0.

| SMILES | improvement in the lung function (increased oxygen content in arterial blood) [1] | oxygen content of the arterial blood, % relative to the value before rinsing the lungs [1] [%] | oxygen content in the blood after administering protein [1] | Concentration of Interleukin-6 (average of three measurements) ([2]; 1 ng/ml) | Concentration of Interleukin-6 (average of three measurements) ([2]; 3 ng/ml) | Concentration of Interleukin-6 (average of three measurements) ([2]; 1 μg/ml) | Concentration of Interleukin-6 (average of three measurements) ([2]; 10 μg/ml) | release of the inflammation marker IL-6 [2] | activation of the sodium ion channels (amplitude of electrical signal) [3] |
| --- | --- | --- | --- | --- | --- | --- | --- | --- | --- |
| C[C@@H]1NC(=O)CNC(=O)[C@H](CCC(=O)O)NC(=O)[C@@H]2CCCN2C(=O)[C@H]([C@@H](C)O)NC(=O)[C@H](CCC(=O)O)NC(=O)[C@H](CCCNC(=N)N)NC(=O)[C@H](CCC(N)=O)NC(=O)CNC(=O)[C@@H]2CCCN2C(=O)[C@H](CO)NC(=O)[C@@H](N)CCCCNC(=O)CC[C@@H](C(=O)O)NC(=O)[C@H](Cc2ccc(O)cc2)NC(=O)[C@H](Cc2c[nH]c3ccccc23)NC(=O)[C@@H]2CCCN2C(=O)[C@H](CCCCN)NC(=O)[C@H](C)NC(=O)[C@H](CCC(=O)O)NC1=O [SEQ ID NO:2, (NH2)Lys-Ser-Pro-Gly-Gln-Arg-Glu-Thr-Pro-Glu-Gly-Ala-Glu-Ala-Lys-Pro-Trp-Tyr-Glu(COOH)] | distinct improvement in the lung function | 75 | increased | less than 0.5 pg/ml | less than 0.5 pg/ml | less than 0.5 pg/ml | less than 0.5 pg/ml | cannot be detected; also recorded: virtually no inflammation marker IL-6 is released | activation of the sodium ion channels |
| CC[C@H](C)[C@H](NC(=O)[C@H](C)NC(=O)[C@H](CO)NC(=O)[C@H](CC(C)C)NC(=O)[C@H](CC(C)C)NC(=O)[C@H](CC(N)=O)NC(=O)[C@@H](N)C(C)C)C(=O)N[C@H]1CCCCNC(=O)CC[C@@H](C(=O)N2CCC[C@H]2C(=O)N[C@H](C(=O)N[C@@H](Cc2ccc(O)cc2)C(=O)N[C@@H](CC(C)C)C(=O)NCC(=O)O)[C@@H](C)CC)NC(=O)[C@H](Cc2ccc(O)cc2)NC(=O)[C@H](Cc2c[nH]c3ccccc23)NC(=O)[C@@H]2CCCN2C(=O)[C@H](CCCCN)NC(=O)[C@H](C)NC(=O)[C@H](CCC(=O)O)NC(=O)[C@H](C)NC(=O)CNC(=O)[C@H](CCC(=O)O)NC(=O)[C@@H]2CCCN2C(=O)[C@H]([C@@H](C)O)NC(=O)[C@H](CCC(=O)O)NC(=O)[C@H](CCCNC(=N)N)NC(=O)[C@H](CCC(N)=O)NC(=O)CNC(=O)[C@@H]2CCCN2C(=O)[C@H](CO)NC1=O [SEQ ID NO:1] (H-VNLLSAIKSPGQRETPEGAEAKPWYEPIYLG-OH; lactam 8-26) | distinct improvement in the lung function | 62 | increased | – | – | – | – | cannot be detected | activation of the sodium ion channels |
